Values of other authors, collected in US20020151447A1, “Reduced toxicity 1-bromopropane cleaning agent production process” (POLYMER SOLVENTS, INC., priority 1997, published 2002).

Columns and labels:
[1] = 8 hour workday
[2] = system: mammals; details: in vivo

## CCCBr [1-bromopropane]
[1]
  workplace exposure limit for handlers: 100 ppm
[2]
  toxicity to mammals: relatively low toxicity
